Experimental data: ChEMBL document CHEMBL3132769, “Fragment growing to retain or alter the selectivity of anchored kinase hinge-binding fragments” (Medchemcomm, 2014)

Assays:
[1] = molecular target: Protein kinase C beta type (Homo sapiens) (UniProt P05771); experiment: Inhibition of human full length PKC beta2 expressed in baculovirus assessed as substrate phosphorylation using fluorescence-labelled peptides as substrate at 2 uM after 90 mins by microfluidic peptide phosphorylation assay
[2] = molecular target: Serine/threonine-protein kinase PAK 2 (Homo sapiens) (UniProt Q13177); experiment: Inhibition of human truncated PAK2 expressed in Escherichia coli cell assessed as substrate phosphorylation using fluorescence-labelled peptides as substrate at […] after 90 mins by microfluidic peptide phosphorylation assay
[3] = molecular target: T1, cGMP-dependent protein kinase 1 (Homo sapiens) (UniProt Q13976); experiment: Inhibition of human full length PKG-1beta expressed in baculovirus assessed as substrate phosphorylation using fluorescence-labelled peptides as substrate at 9 uM after 90 mins by microfluidic peptide phosphorylation assay
T1 sequence (whole entry): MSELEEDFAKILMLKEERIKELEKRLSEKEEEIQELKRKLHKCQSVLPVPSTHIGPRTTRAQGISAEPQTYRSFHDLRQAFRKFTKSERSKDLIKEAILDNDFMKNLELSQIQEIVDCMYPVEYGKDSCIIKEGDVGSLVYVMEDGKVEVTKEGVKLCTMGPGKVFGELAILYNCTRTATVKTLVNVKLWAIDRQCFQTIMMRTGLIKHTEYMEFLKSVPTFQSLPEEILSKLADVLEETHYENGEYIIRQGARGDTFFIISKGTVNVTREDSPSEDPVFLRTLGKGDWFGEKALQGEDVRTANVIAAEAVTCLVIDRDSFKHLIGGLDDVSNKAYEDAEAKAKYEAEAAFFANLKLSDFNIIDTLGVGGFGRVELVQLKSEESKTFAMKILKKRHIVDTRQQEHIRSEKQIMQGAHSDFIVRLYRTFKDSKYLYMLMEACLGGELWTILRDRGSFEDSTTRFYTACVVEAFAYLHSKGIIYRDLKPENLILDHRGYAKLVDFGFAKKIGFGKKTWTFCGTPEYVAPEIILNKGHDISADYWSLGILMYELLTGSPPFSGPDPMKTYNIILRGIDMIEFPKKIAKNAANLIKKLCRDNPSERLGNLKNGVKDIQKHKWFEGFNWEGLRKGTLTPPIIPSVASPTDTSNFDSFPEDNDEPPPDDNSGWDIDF

[4] = molecular target: T2, Interleukin-1 receptor-associated kinase 4 (Homo sapiens) (UniProt Q9NWZ3); experiment: Inhibition of human IRAK4 catalytic domain expressed in baculovirus assessed as substrate phosphorylation using fluorescence-labelled peptides as substrate at 9 uM after 90 mins by microfluidic peptide phosphorylation assay
T2 sequence (whole entry): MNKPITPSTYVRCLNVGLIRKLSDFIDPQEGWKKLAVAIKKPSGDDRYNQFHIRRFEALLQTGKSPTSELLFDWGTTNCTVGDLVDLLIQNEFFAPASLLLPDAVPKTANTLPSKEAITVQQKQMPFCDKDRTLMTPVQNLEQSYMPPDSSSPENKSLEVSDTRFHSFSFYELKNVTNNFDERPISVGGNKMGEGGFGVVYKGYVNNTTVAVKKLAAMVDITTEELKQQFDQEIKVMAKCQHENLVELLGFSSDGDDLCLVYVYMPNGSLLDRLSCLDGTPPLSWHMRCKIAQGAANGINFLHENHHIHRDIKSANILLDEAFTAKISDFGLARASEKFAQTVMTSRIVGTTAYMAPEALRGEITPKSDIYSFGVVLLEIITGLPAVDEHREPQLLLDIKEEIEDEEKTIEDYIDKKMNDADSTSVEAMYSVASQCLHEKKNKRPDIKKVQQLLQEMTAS

[5] = molecular target: T3, Serine/threonine-protein kinase Nek2 (Homo sapiens) (UniProt P51955); experiment: Inhibition of human full length NEK2 expressed in baculovirus assessed as substrate phosphorylation using fluorescence-labelled peptides as substrate at 95 uM after 90 mins by microfluidic peptide phosphorylation assay
T3 sequence (whole entry): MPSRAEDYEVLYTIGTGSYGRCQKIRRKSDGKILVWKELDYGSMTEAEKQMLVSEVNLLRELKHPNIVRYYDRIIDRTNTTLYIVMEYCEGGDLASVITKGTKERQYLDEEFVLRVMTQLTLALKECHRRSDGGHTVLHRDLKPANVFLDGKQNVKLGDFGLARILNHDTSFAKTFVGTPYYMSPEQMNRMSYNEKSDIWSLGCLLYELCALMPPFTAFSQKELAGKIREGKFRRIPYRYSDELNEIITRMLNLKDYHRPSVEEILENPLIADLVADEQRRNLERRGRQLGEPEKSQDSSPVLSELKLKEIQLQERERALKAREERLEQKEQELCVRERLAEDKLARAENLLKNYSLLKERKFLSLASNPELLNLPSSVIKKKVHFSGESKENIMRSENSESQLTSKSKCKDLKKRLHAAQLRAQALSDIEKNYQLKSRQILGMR

[6] = molecular target: Tyrosine-protein kinase ABL1 (Homo sapiens) (UniProt P00519); experiment: Inhibition of human full-length ABL expressed in baculovirus assessed as substrate phosphorylation using fluorescence-labelled peptides as substrate at 1000 uM after 90 mins by microfluidic peptide phosphorylation assay
[7] = molecular target: T1, cGMP-dependent protein kinase 1 (Homo sapiens); experiment: Inhibition of human full length PKG-1a expressed in baculovirus assessed as substrate phosphorylation using fluorescence-labelled peptides as substrate at 70 uM after 90 mins by microfluidic peptide phosphorylation assay

Sequence of Serine/threonine-protein kinase PAK 2 (Homo sapiens) (Q13177 whole entry, the tested form may be a part): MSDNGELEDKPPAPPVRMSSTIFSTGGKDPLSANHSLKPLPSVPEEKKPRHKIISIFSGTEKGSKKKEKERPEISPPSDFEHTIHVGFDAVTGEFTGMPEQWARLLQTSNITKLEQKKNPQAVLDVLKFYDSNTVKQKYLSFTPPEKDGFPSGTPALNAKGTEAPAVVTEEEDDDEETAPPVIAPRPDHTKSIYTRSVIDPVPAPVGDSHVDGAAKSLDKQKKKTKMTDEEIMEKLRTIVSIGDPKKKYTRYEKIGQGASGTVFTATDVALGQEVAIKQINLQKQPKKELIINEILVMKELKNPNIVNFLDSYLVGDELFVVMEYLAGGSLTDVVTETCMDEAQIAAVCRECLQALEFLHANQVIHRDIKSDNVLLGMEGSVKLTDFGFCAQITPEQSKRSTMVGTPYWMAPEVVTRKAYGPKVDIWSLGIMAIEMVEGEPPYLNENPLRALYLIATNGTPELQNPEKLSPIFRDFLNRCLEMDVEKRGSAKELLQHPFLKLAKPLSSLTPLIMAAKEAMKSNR
Sequence of Tyrosine-protein kinase ABL1 (Homo sapiens) (P00519 whole entry): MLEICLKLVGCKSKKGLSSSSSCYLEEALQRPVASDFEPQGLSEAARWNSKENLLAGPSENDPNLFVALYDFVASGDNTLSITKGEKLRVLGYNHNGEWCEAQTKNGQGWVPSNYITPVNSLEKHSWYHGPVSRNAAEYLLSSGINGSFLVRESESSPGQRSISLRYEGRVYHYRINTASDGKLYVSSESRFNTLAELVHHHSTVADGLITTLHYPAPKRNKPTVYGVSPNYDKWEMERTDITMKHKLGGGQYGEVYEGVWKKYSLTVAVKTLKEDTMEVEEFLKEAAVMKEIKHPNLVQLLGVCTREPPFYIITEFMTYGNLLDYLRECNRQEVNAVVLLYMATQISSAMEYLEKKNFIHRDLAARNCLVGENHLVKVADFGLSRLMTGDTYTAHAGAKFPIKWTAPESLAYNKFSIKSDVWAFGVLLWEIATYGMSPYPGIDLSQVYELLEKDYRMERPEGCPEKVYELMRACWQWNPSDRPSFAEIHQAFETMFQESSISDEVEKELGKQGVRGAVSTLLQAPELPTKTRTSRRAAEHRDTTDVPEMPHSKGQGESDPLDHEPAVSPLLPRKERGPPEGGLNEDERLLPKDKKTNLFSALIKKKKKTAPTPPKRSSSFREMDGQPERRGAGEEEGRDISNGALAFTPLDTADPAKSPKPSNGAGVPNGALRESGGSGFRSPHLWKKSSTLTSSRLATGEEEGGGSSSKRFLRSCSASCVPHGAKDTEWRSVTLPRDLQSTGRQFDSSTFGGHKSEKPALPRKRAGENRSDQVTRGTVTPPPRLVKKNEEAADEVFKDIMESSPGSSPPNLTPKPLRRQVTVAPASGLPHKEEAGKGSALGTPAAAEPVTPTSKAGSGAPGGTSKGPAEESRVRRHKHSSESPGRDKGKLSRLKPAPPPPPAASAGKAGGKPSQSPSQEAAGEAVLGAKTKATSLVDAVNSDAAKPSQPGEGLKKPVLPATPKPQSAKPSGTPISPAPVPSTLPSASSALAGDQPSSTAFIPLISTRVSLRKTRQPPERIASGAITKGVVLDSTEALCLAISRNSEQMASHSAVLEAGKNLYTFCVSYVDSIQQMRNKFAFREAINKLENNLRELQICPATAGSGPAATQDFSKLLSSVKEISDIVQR
Sequence of Protein kinase C beta type (Homo sapiens) (P05771 2-671 limits assumed): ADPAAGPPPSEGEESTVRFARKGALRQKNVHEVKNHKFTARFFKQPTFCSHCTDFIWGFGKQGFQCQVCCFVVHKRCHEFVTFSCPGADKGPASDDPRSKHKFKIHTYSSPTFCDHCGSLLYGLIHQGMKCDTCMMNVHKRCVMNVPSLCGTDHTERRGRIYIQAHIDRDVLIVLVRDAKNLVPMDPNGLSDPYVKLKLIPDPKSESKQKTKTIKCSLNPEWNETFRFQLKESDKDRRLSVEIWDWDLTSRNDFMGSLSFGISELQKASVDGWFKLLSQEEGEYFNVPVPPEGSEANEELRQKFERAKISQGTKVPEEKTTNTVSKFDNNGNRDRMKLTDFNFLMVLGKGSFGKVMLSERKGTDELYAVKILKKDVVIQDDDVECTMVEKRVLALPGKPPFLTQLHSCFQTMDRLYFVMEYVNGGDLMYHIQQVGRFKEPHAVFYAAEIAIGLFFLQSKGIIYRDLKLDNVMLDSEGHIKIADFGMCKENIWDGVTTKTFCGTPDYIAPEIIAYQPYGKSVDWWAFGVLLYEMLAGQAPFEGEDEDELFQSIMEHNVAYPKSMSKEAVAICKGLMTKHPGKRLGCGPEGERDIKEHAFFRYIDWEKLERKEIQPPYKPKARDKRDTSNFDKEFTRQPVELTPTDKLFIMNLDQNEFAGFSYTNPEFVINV

NC1CCN(c2ncnc3[nH]ccc23)CC1
inhibition [1]: 62.5%

COC(=O)c1cnc(Nc2cnc(C#N)cn2)cc1NCC1CCNCC1
inhibition [2]: 1.5%

NCC1CN(c2ncnc3[nH]c4cnccc4c23)CCO1 (configuration not stated)
inhibition [3]: 12.5%
inhibition [4]: 56.5%

NCCc1ccc(-c2ncnc3[nH]cnc23)cc1
inhibition [5]: 0%

c1cnc2[nH]ccc2c1
inhibition [6]: 42%

CNCc1ccc(-c2ncnc3[nH]cnc23)cc1
inhibition [7]: 97.5%
